# Experimental data from US6962920B2, “Pyrimidine derivatives and methods of making and using these derivatives” (Duquesne University of the Holy Ghost, priority 1992, dated 2005).
# Molecular target: T1, Tg DHFR (Toxoplasma gondii, UniProt Q07422)
# T1 sequence (Q07422 1-610): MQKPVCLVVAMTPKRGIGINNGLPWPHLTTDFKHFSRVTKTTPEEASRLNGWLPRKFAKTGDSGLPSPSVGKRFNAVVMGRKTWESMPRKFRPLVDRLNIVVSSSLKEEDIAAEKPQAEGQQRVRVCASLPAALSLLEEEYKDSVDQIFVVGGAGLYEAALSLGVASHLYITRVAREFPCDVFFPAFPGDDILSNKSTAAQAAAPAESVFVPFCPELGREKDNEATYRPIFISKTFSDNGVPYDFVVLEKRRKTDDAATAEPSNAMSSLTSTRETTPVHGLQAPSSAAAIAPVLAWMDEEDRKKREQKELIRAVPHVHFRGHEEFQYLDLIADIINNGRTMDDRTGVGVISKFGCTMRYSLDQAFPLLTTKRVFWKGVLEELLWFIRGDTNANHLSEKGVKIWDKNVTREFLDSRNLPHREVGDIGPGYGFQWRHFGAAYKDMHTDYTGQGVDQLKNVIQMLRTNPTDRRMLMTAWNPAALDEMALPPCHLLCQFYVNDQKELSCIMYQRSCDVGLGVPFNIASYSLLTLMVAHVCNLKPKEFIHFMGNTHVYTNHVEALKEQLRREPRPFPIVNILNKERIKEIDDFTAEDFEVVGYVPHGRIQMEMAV
# Assay: biochemical
# Type: biochemical
# Details: Table 22; read-out: tgDHFR IC50
# Procedure: (§1) The selectivity ratio is a measure of the selectivity of a compound for Pc DHFR or Tg DHFR and is expressed as the IC50 value of the DHFR from rate liver (RL) divided by the IC50 value of either the Pc DHFR or the Tg DHFR, depending on which organism the compounds are being tested against. For example, the selectivity ratio of a compound is calculated by the following formula: [formula]
row,SMILES,IC50 [µM]
1,COc1ccc(NCc2c[nH]c3nc(N)[nH]c(=O)c23)c(OC)c1 [Compound 410],7.1
2,COc1cc(NCc2c[nH]c3nc(N)[nH]c(=O)c23)cc(OC)c1 [Compound 409],2.6
3,COc1ccc(OC)c(NCc2c[nH]c3nc(N)nc(O)c23)c1 [Compound 408],2.2
4,Nc1nc2[nH]cc(CNc3ccc(Cl)cc3Cl)c2c(=O)[nH]1 [Compound 414],2.2
5,Nc1nc(O)c2c(CNc3cccc(Cl)c3)c[nH]c2n1 [Compound 415],3.5
6,COc1cc(NCc2c[nH]c3nc(N)nc(O)c23)cc(OC)c1OC [Compound 411],6.9
7,Nc1nc(O)c2c(CNc3cc(Cl)cc(Cl)c3)c[nH]c2n1 [Compound 413],3

# Same assay, conditions: Table 22; selectivity ratio
row,SMILES,rl/tg
1,COc1ccc(NCc2c[nH]c3nc(N)[nH]c(=O)c23)c(OC)c1 [Compound 410],>1.4
2,COc1cc(NCc2c[nH]c3nc(N)[nH]c(=O)c23)cc(OC)c1 [Compound 409],>8
3,COc1ccc(OC)c(NCc2c[nH]c3nc(N)nc(O)c23)c1 [Compound 408],>21
4,Nc1nc2[nH]cc(CNc3ccc(Cl)cc3Cl)c2c(=O)[nH]1 [Compound 414],>7
5,Nc1nc(O)c2c(CNc3cccc(Cl)c3)c[nH]c2n1 [Compound 415],>7
6,COc1cc(NCc2c[nH]c3nc(N)nc(O)c23)cc(OC)c1OC [Compound 411],>3
7,Nc1nc(O)c2c(CNc3cc(Cl)cc(Cl)c3)c[nH]c2n1 [Compound 413],>21

# Same assay, conditions: Table 25; read-out: Inhibitor Concentrations (IC50) tgDHFR
row,SMILES,IC50 [µM]
1,"Nc1nc(N)c2c(CNc3cccc4ccccc34)coc2n1 [Compound 162, 2,4-Diamino-5-[(1-naphthylamino)methyl]furo[2,3-d]pyrimidine]",37

# Molecular target: T2, RL DHFR (Rattus norvegicus, UniProt Q920D2)
# T2 construct: Toxoplasmosis gondii (Tg) and rat liver (RL); from tissue; host or cells: rat liver
# T2 sequence (Q920D2 1-187): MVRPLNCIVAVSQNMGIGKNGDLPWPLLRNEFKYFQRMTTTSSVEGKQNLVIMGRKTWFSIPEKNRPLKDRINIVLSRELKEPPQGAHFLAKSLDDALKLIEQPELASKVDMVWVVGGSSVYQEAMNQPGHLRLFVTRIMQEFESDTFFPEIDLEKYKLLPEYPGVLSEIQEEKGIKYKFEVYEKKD
# Assay: Inhibition of DHFR from rat liver
# Type: biochemical
# Details: Table 7; read-out: RL DHFR IC50
# Procedure: as §1
row,SMILES,IC50 [µM]
1,"COc1ccc(OC)c(Cc2cnc3nc(N)nc(N)c3c2C)c1 [PTX, piritrexim, reference compound]",0.001

# Same assay, conditions: Table 16; read-out: RL DHFR IC50
row,SMILES,IC50 [µM]
1,"Nc1nc(N)c2c(CNc3ccccc3-c3ccccc3)coc2n1 [Compound 167, 2,4-Diamino-5-[(2′-phenylanilino)methyl]furo[2,3-d]pyrimidine]",187

# Same assay, conditions: Table 22; read-out: rlDHFR IC50
row,SMILES,IC50 [µM]
1,COc1ccc(NCc2c[nH]c3nc(N)[nH]c(=O)c23)c(OC)c1 [Compound 410],> 16
2,COc1cc(NCc2c[nH]c3nc(N)[nH]c(=O)c23)cc(OC)c1 [Compound 409],> 20
3,COc1ccc(OC)c(NCc2c[nH]c3nc(N)nc(O)c23)c1 [Compound 408],> 47
4,Nc1nc2[nH]cc(CNc3ccc(Cl)cc3Cl)c2c(=O)[nH]1 [Compound 414],> 15
5,Nc1nc(O)c2c(CNc3cccc(Cl)c3)c[nH]c2n1 [Compound 415],> 26
6,COc1cc(NCc2c[nH]c3nc(N)nc(O)c23)cc(OC)c1OC [Compound 411],> 22
7,Nc1nc(O)c2c(CNc3cc(Cl)cc(Cl)c3)c[nH]c2n1 [Compound 413],> 63

# Same assay, conditions: Table 25; read-out: Inhibitor Concentrations (IC50) rlDHFR
row,SMILES,IC50 [µM]
1,"Nc1nc(N)c2c(CSc3cccc4ccccc34)coc2n1 [Compound 160, 2,4-Diamino-5-[(1-naphthylthio)methyl]furo[2,3-d]pyrimidine]",23
2,"Nc1nc(N)c2c(CSc3ccccc3)coc2n1 [Compound 159, 2-4-Diamino-5-[(phenylthio)methyl]furo[2,3-d]pyrimidine]",252
3,"Nc1nc(N)c2c(CSc3ccc4ccccc4c3)coc2n1 [Compound 161, 2,4-Diamino-5-[(2-naphthylthio)methyl]furo[2,3-d]pyrimidine]",12.3

# Molecular target: E-coli thymidylate synthase (ecTS) (Escherichia coli, UniProt P0A884)
# Assay: Inhibition of E. coli thymidylate synthase
# Type: biochemical
# Details: not given
# Procedure: All of the compounds were tested against human cells, L. casei, E. coli, and S. faecium.
# Sequence of E-coli thymidylate synthase (ecTS) (P0A884 whole entry): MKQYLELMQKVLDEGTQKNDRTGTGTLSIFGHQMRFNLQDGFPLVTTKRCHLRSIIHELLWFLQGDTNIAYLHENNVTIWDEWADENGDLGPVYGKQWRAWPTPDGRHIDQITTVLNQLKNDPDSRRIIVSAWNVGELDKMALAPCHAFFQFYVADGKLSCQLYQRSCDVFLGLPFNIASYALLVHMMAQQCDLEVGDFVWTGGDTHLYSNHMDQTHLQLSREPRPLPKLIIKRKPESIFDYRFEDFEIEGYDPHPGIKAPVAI
row,SMILES,IC50 [µM]
1,COc1ccc(NCc2c[nH]c3nc(N)[nH]c(=O)c23)c(OC)c1 [Compound 410],> 160
2,COc1cc(NCc2c[nH]c3nc(N)[nH]c(=O)c23)cc(OC)c1 [Compound 409],> 160
3,COc1ccc(OC)c(NCc2c[nH]c3nc(N)nc(O)c23)c1 [Compound 408],> 160
4,Nc1nc(O)c2c(CNc3cccc(Cl)c3)c[nH]c2n1 [Compound 415],> 180
5,COc1cc(NCc2c[nH]c3nc(N)nc(O)c23)cc(OC)c1OC [Compound 411],> 290

# Same assay, conditions: Table 22; at the concentration given
row,SMILES,"% in parentheses after the > value, ecTS [%]"
1,COc1ccc(NCc2c[nH]c3nc(N)[nH]c(=O)c23)c(OC)c1 [Compound 410],8
2,COc1cc(NCc2c[nH]c3nc(N)[nH]c(=O)c23)cc(OC)c1 [Compound 409],0
3,COc1ccc(OC)c(NCc2c[nH]c3nc(N)nc(O)c23)c1 [Compound 408],21
4,Nc1nc(O)c2c(CNc3cccc(Cl)c3)c[nH]c2n1 [Compound 415],26
5,COc1cc(NCc2c[nH]c3nc(N)nc(O)c23)cc(OC)c1OC [Compound 411],8

# Molecular target: T3, Pc DHFR (Pneumocystis carinii, UniProt P16184)
# T3 sequence (P16184 1-206): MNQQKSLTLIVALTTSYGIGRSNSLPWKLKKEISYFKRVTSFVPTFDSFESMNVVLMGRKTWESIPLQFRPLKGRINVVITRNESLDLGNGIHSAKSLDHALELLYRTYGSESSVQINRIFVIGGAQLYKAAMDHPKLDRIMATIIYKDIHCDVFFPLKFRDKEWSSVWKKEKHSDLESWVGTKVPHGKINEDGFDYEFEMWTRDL
# Assay: biochemical
# Details: not given
row,SMILES,IC50 [µM]
1,"Nc1nc(N)c2c(CSc3ccc4ccccc4c3)coc2n1 [Compound 161, 2,4-Diamino-5-[(2-naphthylthio)methyl]furo[2,3-d]pyrimidine]",0.66

# Same assay, conditions: Table 16; read-out: Pc DHFR IC50
row,SMILES,IC50 [µM]
1,"CN(Cc1coc2nc(N)nc(N)c12)c1cc(Cl)c(Cl)c(Cl)c1 [Compound 172, 2,4-Diamino-5-[(N-methyl-3′,4′,5′-trichloroanilino)methyl]furo[2,3-d]-pyrimidine]",284
2,"Nc1nc(N)c2c(CNc3cccc4ccccc34)coc2n1 [Compound 162, 2,4-Diamino-5-[(1-naphthylamino)methyl]furo[2,3-d]pyrimidine]",13.5
3,"Nc1nc(N)c2c(CSc3ccc4ccccc4c3)coc2n1 [Compound 161, 2,4-Diamino-5-[(2-naphthylthio)methyl]furo[2,3-d]pyrimidine]",0.65

# Same assay, conditions: Table 22; read-out: pcDHFR IC50
row,SMILES,IC50 [µM]
1,COc1ccc(NCc2c[nH]c3nc(N)[nH]c(=O)c23)c(OC)c1 [Compound 410],> 16
2,COc1cc(NCc2c[nH]c3nc(N)[nH]c(=O)c23)cc(OC)c1 [Compound 409],> 20
3,COc1ccc(OC)c(NCc2c[nH]c3nc(N)nc(O)c23)c1 [Compound 408],> 47
4,Nc1nc2[nH]cc(CNc3ccc(Cl)cc3Cl)c2c(=O)[nH]1 [Compound 414],> 15
5,Nc1nc(O)c2c(CNc3cccc(Cl)c3)c[nH]c2n1 [Compound 415],> 26
6,COc1cc(NCc2c[nH]c3nc(N)nc(O)c23)cc(OC)c1OC [Compound 411],> 22
7,Nc1nc(O)c2c(CNc3cc(Cl)cc(Cl)c3)c[nH]c2n1 [Compound 413],66.2

# Same assay, conditions: Table 25; read-out: Inhibitor Concentrations (IC50) pcDHFR
row,SMILES,IC50 [µM]
1,"CN(Cc1coc2nc(N)nc(N)c12)c1cc(Cl)c(Cl)c(Cl)c1 [Compound 172, 2,4-Diamino-5-[(N-methyl-3′,4′,5′-trichloroanilino)methyl]furo[2,3-d]-pyrimidine]",284
2,"Nc1nc(N)c2c(CNc3cccc4ccccc34)coc2n1 [Compound 162, 2,4-Diamino-5-[(1-naphthylamino)methyl]furo[2,3-d]pyrimidine]",13.5
3,"Nc1nc(N)c2c(CSc3ccc4ccccc4c3)coc2n1 [Compound 161, 2,4-Diamino-5-[(2-naphthylthio)methyl]furo[2,3-d]pyrimidine]",0.65
